Experimental data published in paper PMC9852121, “Targeted α-therapy using astatine (^211At)-labeled PSMA1, 5, and 6: a preclinical evaluation as a novel compound” (European Journal of Nuclear Medicine and Molecular Imaging, 2022).
Where two headings read alike, the source gives them in different places.

What was measured:
[1] = set-up: method as in PMID 27789722, PMID 27889802; details: humans; cited from earlier work
[2] = set-up: method as in PMID 27789722, PMID 27889802; details: mice; cited from earlier work
[3] = Plasma BUN and creatinine (renal function) in ICR mice; type: in vivo; details: 8 weeks after administration, Supplementary Fig. S2
Method: Plasma was obtained by centrifuging a portion of the blood sample collected at the time of euthanasia and was measured using a dry clinical chemistry analyzer (SPOTCHEM D-00 QR D-02; ARKRAY, Inc., Kyoto, Japan). Blood urea nitrogen (BUN) and creatinine (Cre) levels were also measured. Cre values less than 0.2 were considered 0.2 in the statistical analysis.

[4] = Biodistribution in normal ICR mice; type: in vivo; details: 3 h post-injection
Excerpt: (§1) Non-obese diabetic/severe combined immunodeficiency (NOD/SCID) mice (5 weeks old, male) were purchased from Charles River Japan, Inc. (Atsugi, Japan). LNCaP cells were suspended in a 1:1 mixture of medium and Matrigel (Corning, USA), subcutaneously implanted into the unilateral flank of the mice (approximately 6–10 × 10^6 cells), and used approximately 5 weeks later (range, 4–8 weeks). Institute of Cancer Research (ICR) mice (6 weeks old, male) were purchased from Japan SLC, Inc. (Shizuoka, Japan) and used as a non-tumor-bearing cohort for the evaluation of biodistribution and histology.
High PSMA expression was already confirmed in LNCaP xenografts in our previous study. […] Urine excretion was determined from absorption to filter paper or by urine collection in the cage, and feces were collected from the cage. Radioactivity was measured using a 2480 Wizard^2 γ counter. The detection efficiency for ^211At with the γ counter was calibrated by measurement of the ^211At source whose radioactivity was determined with a Ge semiconductor detector (BE2020, Mirion Technologies (Canberra), Connecticut, USA). Uptake was calculated as the percentage of injected dose (%ID).

[5] = Urine analysis with urinalysis test strips (protein) in normal ICR mice; type: in vivo; details: for Urine test of protein: individual animals No. 1-3
[6] = In vivo deastatination / metabolites in blood and urine; set-up: species or system mice
LNCaP xenograft [7] = experiment: Biodistribution in LNCaP xenograft model (NOD/SCID mice); type: in vivo; details: for Total excretion in the urine / Total excretion in the feces: Fig. 3 legend, mouse strain not given; for Tumor retention (uptake): about 0.11-0.12 MBq; for Kidney uptake, comparison [211At]PSMA5 versus [211At]PSMA6: 3 h post-injection, NOD/SCID mice
Excerpt: as §1
High PSMA expression was already confirmed in LNCaP xenografts in our previous study. The brain, thyroid, salivary gland, lung, heart, liver, spleen, pancreas, stomach, small intestine, colon, kidney, bone, testis, blood, urine, feces, and tumor were excised and weighed to evaluate biodistribution after euthanasia at 3 and 24 h after administration. Urine excretion was determined from absorption to filter paper or by urine collection in the cage, and feces were collected from the cage. Radioactivity was measured using a 2480 Wizard^2 γ counter. The detection efficiency for ^211At with the γ counter was calibrated by measurement of the ^211At source whose radioactivity was determined with a Ge semiconductor detector (BE2020, Mirion Technologies (Canberra), Connecticut, USA). Uptake was calculated as the percentage of injected dose (%ID).

LNCaP xenograft [8] = experiment: Planar imaging with γ camera in LNCaP xenograft mice; type: in vivo, NOD/SCID mice; details: 3 and 24 h post-injection
Method: Planar imaging was performed using a γ camera system (E-cam, Siemens) at 3 and 24 h after administration, targeting the X-rays emitted from the daughter nuclide ^211Po (energy window: 79 keV ± 20%). Image analysis was performed by setting the regions of interest in the tumor and kidneys using AMIDE software (version 1.0.4).

LNCaP xenograft [9] = experiment: Treatment effect in LNCaP xenograft mice (tumor size, body weight); type: in vivo, NOD/SCID mice; details: single administration 0.4 MBq, versus saline
Excerpt: as §1
LNCaP xenograft mice (body weight = 21.8 ± 5.98 g) were administered [^211At]PSMA5 (0.39 ± 0.03 MBq, 0.002 μg, n = 12), [^211At]PSMA1 (0.40 ± 0.07 MBq, 0.002 μg, n = 5), or saline (n = 10). […] Non-radiolabeled PSMA5 (high mass, 0.02 μg; low mass, 0.002 μg) and PSMA1 (high mass, 0.02 μg; low mass, 0.002 μg) were also administered to LNCaP xenograft mice (each n = 3) and compared with saline-injected mice (n = 3) to assess the absence of antitumor effect by the PSMA compound itself. […] The body weight (g) was also monitored.

[10] = tested on: LNCaP cells (high expression of PSMA); experiment: In vitro cellular uptake analysis (LNCaP versus PC-3 cells); type: cell-based, human; details: 30 min incubation, Fig. 2; for Cellular uptake, LNCaP cells compared with PC-3 cells: LNCaP high, PC-3 low PSMA expression
Excerpt: Human prostate cancer cell lines, prostatic carcinoma-3 (PC-3) (low expression of PSMA), and lymph node carcinoma of the prostate (LNCaP) (high expression of PSMA) were obtained from the RIKEN Cell Bank (Tsukuba, Japan). Cells were maintained in a culture medium, Roswell Park Memorial Institute 1640 medium (FUJIFILM Wako Pure Chemical Corporation, Osaka, Japan), supplemented with 10% heat-inactivated fetal bovine serum (Gibco) and 1% penicillin-streptomycin (FUJIFILM Wako Pure Chemical). The medium for LNCaP was supplemented with 1% sodium pyruvate (FUJIFILM Wako Pure Chemical) in a culture medium. Cells were seeded in 24-well plates (5 × 10^4/well) and cultured for 2 days. After washing twice with phosphate-buffered saline (PBS) (−), the culture medium was changed to Hanks’ balanced salt solution (+). After treatment with [^211At]PSMA1 or [^211At]PSMA5 (approximately 30–50 kBq/well), cells were washed twice with PBS (–). After washing, all cells were lysed with 0.1 N sodium hydroxide, and the radioactivity of the cells was calculated using a 2480 Wizard^2 γ counter (Perkin Elmer, MA, USA). Protein levels were measured using a plate reader (MultiScan FC, Thermo Fisher) and the BCA Protein Assay Kit (FUJIFILM Wako Pure Chemical). Uptake (%uptake/mg protein) was compared between PC-3 and LNCaP cells at 30 min after incubation with [^211At]PSMA1 or [^211At]PSMA5.

[11] = Histopathological evaluation of organs in LNCaP xenograft mice; type: in vivo; details: LNCaP xenograft NOD/SCID mice, 3 and 6 weeks after 0.4 MBq
Method: (§2) The excised organs and tissues were fixed in a 10% neutral buffered formalin solution. After fixation, paraffin sections were prepared and stained with hematoxylin and eosin. Specimens were evaluated using an integrated microscope (BZ-X810; Keyence Corporation, Osaka, Japan). Histological evaluation was performed by a toxicopathology specialist with the support of KAC Co. Ltd. (Kyoto, Japan).

[12] = Histopathological evaluation of organs in normal ICR mice; type: in vivo; details: for Histopathology of kidney parenchyma, salivary gland, stomach, thyroid, spleen and small intestine: 8 weeks after 0.4 MBq
Method: as §2

[13] = set-up: method as in PMID 27230930; details: cited from earlier work

Structure (SMILES)	Kidney uptake, comparison [211At]PSMA5 versus [211At]PSMA6 [4]	Urine test of protein ([5]; Day 21 after 0.4 MBq)	Urine test of protein ([5]; Day 38 after 0.4 MBq)	Total excretion in the urine (LNCaP xenograft [7]; 3 h) [%ID]	Tumor retention (uptake) (LNCaP xenograft [7]; 3 h after administration) [%ID/g]	Kidney uptake, comparison [211At]PSMA5 versus [211At]PSMA6 (LNCaP xenograft [7])	Total excretion in the feces (LNCaP xenograft [7]; 24 h) [%ID]	Total excretion in the urine (LNCaP xenograft [7]; 24 h) [%ID]	Tumor retention (uptake) (LNCaP xenograft [7]; 24 h after administration) [%ID/g]	Changes in body weight (LNCaP xenograft [9])	Treatment effect on tumor growth (tumor size) (LNCaP xenograft [9])	Cellular uptake, LNCaP cells compared with PC-3 cells [10]	Histopathology of kidney parenchyma, salivary gland, stomach, thyroid, spleen and small intestine [12]	further results
O=C(O)CC[C@H](NC(=O)N[C@@H](CCCCNC(=O)[C@H](Cc1ccc2ccccc2c1)NC(=O)c1ccc(CNC(=O)[C@H](CCC(=O)O)NC(=O)[C@H](CCC(=O)O)NC(=O)c2ccc([18F])nc2)cc1)C(=O)O)C(=O)O [[^18F]PSMA-1007]	–	–	–	–	–	–	–	–	–	–	–	–	–	Urine excretion in PET [1]: minimal; Urine excretion in PET [2]: high urine excretion
O=C(O)CCC(NC(=O)NC(CCCCNC(=O)C(Cc1ccc2ccccc2c1)NC(=O)c1ccc(CNC(=O)C(CCC(=O)O)NC(=O)C(CCC(=O)O)NC(=O)Cc2ccc([211At])cc2)cc1)C(=O)O)C(=O)O (centres unmarked) [[^211At]PSMA5]	similar	30 (1+) mg/dl	30 (1+) mg/dl	8.26 ± 5.00	30.6 ± 17.8	similar	35.2 ± 9.2	15.33 ± 6.3	40.7 ± 2.6	No significant changes in body weight	excellent tumor growth suppression	more highly incorporated into LNCaP cells	no significant changes	BUN and Cre levels [3]: did not observe proteinuria or increased BUN and Cre levels; Proteinuria ([5]; 8 weeks after administration): did not observe proteinuria; Urine test of protein ([5]; Day 10 after 0.4 MBq): 30 (1+) mg/dl; Urine test of protein ([5]; Day 14 after 0.4 MBq): 30 (1+) mg/dl; Metabolites, including astatide ions, present in urine (deastatination) ([6]; 3 h after injection, mice): not more than 1.0 % of the injected doses; Radioactivity in the blood and urine from intact molecules ([6]; 3 h post injection): most of the radioactivity observed in the blood and urine was from intact molecules; Tumor uptake, comparison with [211At]PSMA6 (LNCaP xenograft [7]; mouse, in vivo): higher tumor uptake than [^211At]PSMA6; Tumor-to-kidney uptake, comparison with [211At]PSMA6 (LNCaP xenograft [7]; mouse, in vivo): better tumor-to-kidney uptake; Uptake in the tumor xenografts and kidneys on planar images (LNCaP xenograft [8]): High uptake; Cellular uptake, comparison between compounds [10]: higher uptake than [^211At]PSMA1; Histopathology of salivary glands and stomach [11]: No significant changes; Histopathology of the kidneys [11]: regenerated tubules were observed in the cortical area in all NOD/SCID mice; Mice with regenerated tubules in the cortical area of the kidney ([12]; 2 weeks after high dose 1 MBq): one out of four
O=C(O)CCC(NC(=O)NC(CCCCNC(=O)C(Cc1ccc2ccccc2c1)NC(=O)c1ccc(CNC(=O)CCC(=O)NCCCCC(NC(=O)CNC(=O)Cc2ccc([211At])cc2)C(=O)O)cc1)C(=O)O)C(=O)O (centres unmarked) [[^211At]PSMA1]	–	–	–	0.49 ± 0.37	12.4 ± 4.8	–	14.0 ± 4.8	14.7 ± 10.0	8.7 ± 3.5	No significant changes in body weight	good treatment effect	more highly incorporated into LNCaP cells	–	Kidney excretion, comparison with [211At]PSMA5 and [211At]PSMA6 (LNCaP xenograft [7]; mouse, in vivo): superior
O=C(O)CC[C@H](NC(=O)NC(CCCCNC(=O)c1ccc([211At])cc1)C(=O)O)C(=O)O (stereo partly drawn) [^211At-6, (2S)-2-(3-(1-carboxy-5-(4-211At-astatobenzamido)pentyl)ureido)-pentanedioic acid]	–	–	–	–	–	–	–	–	–	–	–	–	–	Kidney findings after treatment ([13]; 1.5 MBq): subcortical atrophy, and degenerative loss of proximal tubules; Proteinuria ([13]; animals treated with 1.5 MBq): developed proteinuria 1–2 months after treatment; Proteinuria ([13]; animals treated with 37 kBq): developed mild proteinuria that was later resolved
O=C(O)CC[C@H](NC(=O)N[C@@H](CCCCNC(=O)[C@@H](Cc1ccc2ccccc2c1)NC(=O)c1ccc(CNC(=O)[C@H](CCC(=O)O)NC(=O)[C@H](CCC(=O)O)NC(=O)Cc2ccc([211At])cc2)cc1)C(=O)O)C(=O)O [[^211At]PSMA6]	similar	30 (1+) mg/dl	30 (1+) mg/dl	–	19.1 ± 4.5	similar	9.78 ± 0.79	6.20 ± 1.51	18.1 ± 2.2	–	–	–	no significant changes	Urine test of protein ([5]; Day 24 after 0.4 MBq): 100 (2+) mg/dl; Urine test of protein ([5]; Day 31 after 0.4 MBq): 30 (1+) mg/dl; Urine test of protein ([5]; Day 45 after 0.4 MBq): 30 (1+) mg/dl; Retention in the kidney, comparison with [211At]PSMA5 (LNCaP xenograft [7]; 24 h post-injection): higher retention in the kidney
